The supplement of paper PMC10307832

Tests used:
Assay in all cases: relative viability (nuclei count vs DMSO), 5 days (fraction); higher = more cells survive
[1] = compound: CC(C)C[C@@H](C(=O)N[C@H](C(=O)OC1CCCC1)c1ccccc1)[C@H](O)C(=O)NO [Tosedostat] + Nc1nc2[nH]cc(CCc3ccc(C(=O)N[C@@H](CCC(=O)O)C(=O)O)cc3)c2c(=O)[nH]1 [Pemetrexed] (partner 0.2 µM)
Method in brief: (§1)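 Relative viability is defined as nuclei in treated wells over nuclei in vehicle wells. Duplicate plates were run and medians reported. Lung cancer cell lines in 1536-well plates were dosed by pin tool one day after seeding, with one drug or with a fixed anchor-drug dose plus five library-drug doses (not always all listed) in √10 steps, and nuclei were counted after 5 days.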

[2] = compound: CC1=NN=C(O1)C2=NN=C(C=C2)N3CCC(CC3)OC4=C(C=CC(=C4)F)Cl + COc1cccc2cc(-c3nc([C@H]4CC[C@H](C(=O)O)CC4)n4ncnc(N)c34)[nH]c12 [OSI-027] (partner 0.5 µM)
Method in brief: as §1

[3] = compound: CC1=NN=C(O1)C2=NN=C(C=C2)N3CCC(CC3)OC4=C(C=CC(=C4)F)Cl + Nc1ncn([C@H]2C[C@H](O)[C@@H](CO)O2)c(=O)n1 [Decitabine] (partner 2 µM)
Method in brief: as §1

[4] = compound: CC1=NN=C(O1)C2=NN=C(C=C2)N3CCC(CC3)OC4=C(C=CC(=C4)F)Cl + O=C(c1cc(Cc2n[nH]c(=O)c3ccccc23)ccc1F)N1CCN(C(=O)C2CC2)CC1 [Olaparib] (partner 8 µM)
Method in brief: as §1

Cell Line	relative viability ([1]; first compound 0.02 µM)	relative viability ([1]; first compound 0.06325 µM)	relative viability ([1]; first compound 0.2 µM)	relative viability ([1]; first compound 0.6325 µM)	relative viability ([1]; first compound 2 µM)	relative viability ([2]; first compound 0.253 µM)	relative viability ([2]; first compound 0.8 µM)	relative viability ([2]; first compound 2.53 µM)	relative viability ([2]; first compound 8 µM)	relative viability ([3]; first compound 0.253 µM)	relative viability ([3]; first compound 0.8 µM)	relative viability ([3]; first compound 2.53 µM)	relative viability ([3]; first compound 8 µM)	relative viability ([4]; first compound 0.253 µM)	relative viability ([4]; first compound 0.8 µM)	relative viability ([4]; first compound 2.53 µM)	relative viability ([4]; first compound 8 µM)
NCI-H2170	0.262	0.29	0.244	0.348	0.352	0.486	0.485	0.654	0.489	0.366	0.323	0.357	0.321	0.303	0.248	0.342	0.256
NCI-H23	0.745	0.702	0.691	0.725	0.361	0.49		0.547	0.627	0.268	0.328	0.295	0.282	0.164	0.272	0.327	0.302
NCI-H596	0.468	0.488	0.515	0.497	0.45	0.565	0.572	0.734	0.698	1.01	0.977	1.08	0.762	0.541	0.732	0.752	0.615
SK-LU-1	1	0.9	1.05	0.962	0.868	0.3		0.247	0.199	0.667	0.517	0.595	0.557	0.356	0.341	0.348	0.41
NCI-H650	1.01	0.846	0.895	0.873	0.804	0.553	0.447	0.528	0.437	0.334	0.331	0.336	0.285	0.39	0.227	0.407	0.382
LU99A	0.172	0.165	0.195	0.212	0.191	0.274	0.298	0.307	0.287	0.891	0.913	0.812	0.834	0.214	0.294	0.277	0.299
NCI-H520	0.728	0.773	0.743	0.782	0.734	0.336		0.337	0.244	0.603	0.495	0.478	0.362	0.308	0.346	0.294	0.259
NCI-H661	0.959	0.9	0.97	0.984	0.994	0.633	0.588	0.528	0.484	0.519	0.465	0.407	0.396	0.619	0.542	0.583	0.586
PC-3 [JPC-3]	1.03	1.18	0.918	0.901	0.54	0.691	0.619	0.655	0.681	0.774	0.747	0.801	0.732	1	0.899	0.997	1.04
RERF-LC-KJ	0.49	0.499	0.51	0.486	0.466	0.524	0.531	0.622	0.479	0.574	0.561	0.52	0.521	0.377	0.536	0.553	0.529
NCI-H1793	0.659	0.832	0.838	0.849	0.598	0.253	0.2	0.296	0.276	0.468	0.482	0.343	0.452	0.761	0.74	0.762	0.738
NCI-H1915	0.526	0.538	0.645	0.726	0.781	0.596	0.349	0.553	0.421	0.255	0.223	0.242	0.217	0.202	0.17	0.184	0.162
H3255	0.56	0.628	0.625	0.611	0.638	0.578	0.581	0.545	0.511	0.484	0.525	0.464	0.564	0.483	0.498	0.5	0.527
201T	0.336	0.335	0.393	0.355	0.307	0.383	0.536	0.583	0.504	0.459	0.647	0.445	0.43	0.409	0.382	0.389	0.383
NCI-H2405	1.02	1.04	1.05	0.875	0.85	0.607	0.549	0.634	0.616	0.452	0.43	0.485	0.443	0.586	0.469	0.514	0.499
HOP-62	0.34	0.328	0.38	0.431	0.472	0.762	0.579	0.771	0.555	0.189	0.184	0.19	0.18	0.388	0.116	0.192	0.279
NCI-H1993	0.478	0.619	0.716	0.532	0.485	0.457	0.552	0.523	0.581	0.554	0.551	0.484	0.647	0.894	0.758	0.855	0.856
NCI-H2126	0.644	0.698	0.708	0.705	0.611	0.626	0.589	0.756	0.661	0.542	0.549	0.488	0.52	0.816	0.697	0.767	0.76
